Each structure is given as a SMILES string.

The nature of the data set: Solubility experiment in cyclohexanone (CHON). Format: physicochemical. The settings on record: normal temperature/pressure, whether 0.1 wt % or more was dissolved. The procedure: In order to confirm the solubility in the solvent used in the solution process of the compounds prepared in the Preparation Examples and the comparative compounds, each of them was dissolved in the solvent cyclohexanone (CHON) under normal temperature/pressure conditions, and it was confirmed whether 0.1 wt % or more was dissolved.
As for `Cc1cccc(N(c2ccc3c(c2)c2c4ccc5c(c4ccc2n3-c2ccccc2)c2cc(N(c3ccc4c(c3)c3c6ccc7c(c6ccc3n4-c3ccccc3)c3cc(N(c4cccc(C)c4)c4cccc6c4oc4ccccc46)ccc3n7-c3ccccc3)c3ccc4c(c3)c3c6ccc7c(c6ccc3n4-c3ccccc3)c3cc(N(c4cccc(C)c4)c4cccc6c4oc4ccccc46)ccc3n7-c3ccccc3)ccc2n5-c2ccccc2)c2cccc3c2oc2ccccc23)c1` [Compound 17], the “Solubility, Solvent CHON” value was “○ (Evaluation list (○): 0.1 wt. % or more soluble)”.

For the molecule `Cc1cccc(N(c2ccc3c4c5ccc6c(c5ccc4n(-c4ccccc4)c3c2)c2ccc(-c3cc(-c4ccc5c7c8ccc9c(c8ccc7n(-c7ccccc7)c5c4)c4ccc(N(c5cccc(C)c5)c5cccc7c5oc5ccccc57)cc4n9-c4ccccc4)cc(-c4ccc5c7c8ccc9c(c8ccc7n(-c7ccccc7)c5c4)c4ccc(N(c5cccc(C)c5)c5cccc7c5oc5ccccc57)cc4n9-c4ccccc4)c3)cc2n6-c2ccccc2)c2cccc3c2oc2ccccc23)c1` [Compound 4], the “Solubility, Solvent CHON” value was “○ (Evaluation list (○): 0.1 wt. % or more soluble)”. As to `Cc1cccc(N(c2ccc3c4c5ccc6c(c5ccc4n(-c4ccccc4)c3c2)c2ccc(Oc3ccc(-c4cc(-c5ccc(Oc7ccc8c9c%10ccc%11c(c%10ccc9n(-c9ccccc9)c8c7)c7ccc(N(c8cccc(C)c8)c8cccc9c8oc8ccccc89)cc7n%11-c7ccccc7)cc5)cc(-c5ccc(Oc7ccc8c9c%10ccc%11c(c%10ccc9n(-c9ccccc9)c8c7)c7ccc(N(c8cccc(C)c8)c8cccc9c8oc8ccccc89)cc7n%11-c7ccccc7)cc5)c4)cc3)cc2n6-c2ccccc2)c2cccc3c2oc2ccccc23)c1` [Compound 16], the “Solubility, Solvent CHON” value is given as “○ (Evaluation list (○): 0.1 wt. % or more soluble)”. In the case of `CC(C)(C)c1ccc(N(c2ccc(C(C)(C)C)cc2)c2ccc3c4c5ccc6c(c5ccc4n(-c4ccccc4)c3c2)c2ccc(N(c3ccc(C(C)(C)C)cc3)c3cc(N(c4ccc(C(C)(C)C)cc4)c4ccc5c7c8ccc9c(c8ccc7n(-c7ccccc7)c5c4)c4ccc(N(c5ccc(C(C)(C)C)cc5)c5ccc(C(C)(C)C)cc5)cc4n9-c4ccccc4)cc(N(c4ccc(C(C)(C)C)cc4)c4ccc5c7c8ccc9c(c8ccc7n(-c7ccccc7)c5c4)c4ccc(N(c5ccc(C(C)(C)C)cc5)c5ccc(C(C)(C)C)cc5)cc4n9-c4ccccc4)c3)cc2n6-c2ccccc2)cc1` [Compound 12] it was “○ (Evaluation list (○): 0.1 wt. % or more soluble)”; in that of `Cc1cccc(N(c2ccc3c4c5ccc6c(c5ccc4n(-c4ccccc4)c3c2)c2ccc(N(c3ccc4c5c7ccc8c(c7ccc5n(-c5ccccc5)c4c3)c3ccc(N(c4cccc(C)c4)c4cccc5c4oc4ccccc45)cc3n8-c3ccccc3)c3ccc4c5c7ccc8c(c7ccc5n(-c5ccccc5)c4c3)c3ccc(N(c4cccc(C)c4)c4cccc5c4oc4ccccc45)cc3n8-c3ccccc3)cc2n6-c2ccccc2)c2cccc3c2oc2ccccc23)c1` [Compound 1], “○ (Evaluation list (○): 0.1 wt. % or more soluble)”; in that of `CC(C)(C)c1ccc(N(c2ccc(C(C)(C)C)cc2)c2ccc3c4c5ccc6c(c5ccc4n(-c4ccccc4)c3c2)c2ccc(-c3cc(-c4ccc5c7c8ccc9c(c8ccc7n(-c7ccccc7)c5c4)c4ccc(N(c5ccc(C(C)(C)C)cc5)c5ccc(C(C)(C)C)cc5)cc4n9-c4ccccc4)cc(-c4ccc5c7c8ccc9c(c8ccc7n(-c7ccccc7)c5c4)c4ccc(N(c5ccc(C(C)(C)C)cc5)c5ccc(C(C)(C)C)cc5)cc4n9-c4ccccc4)c3)cc2n6-c2ccccc2)cc1` [Compound 5], “○ (Evaluation list (○): 0.1 wt. % or more soluble)”. In the case of `Cc1cccc(N(c2ccc3c4c5ccc6c(c5ccc4n(-c4ccccc4)c3c2)c2ccc(Oc3cc(Oc4ccc5c7c8ccc9c(c8ccc7n(-c7ccccc7)c5c4)c4ccc(N(c5cccc(C)c5)c5cccc7c5oc5ccccc57)cc4n9-c4ccccc4)cc(Oc4ccc5c7c8ccc9c(c8ccc7n(-c7ccccc7)c5c4)c4ccc(N(c5cccc(C)c5)c5cccc7c5oc5ccccc57)cc4n9-c4ccccc4)c3)cc2n6-c2ccccc2)c2cccc3c2oc2ccccc23)c1` [Compound 14] it was “○ (Evaluation list (○): 0.1 wt. % or more soluble)”; in that of `Cc1cccc(N(c2ccc3c4c5ccc6c(c5ccc4n(-c4ccccc4)c3c2)c2ccc(Oc3cccc(-c4cc(-c5cccc(Oc7ccc8c9c%10ccc%11c(c%10ccc9n(-c9ccccc9)c8c7)c7ccc(N(c8cccc(C)c8)c8cccc9c8oc8ccccc89)cc7n%11-c7ccccc7)c5)cc(-c5cccc(Oc7ccc8c9c%10ccc%11c(c%10ccc9n(-c9ccccc9)c8c7)c7ccc(N(c8cccc(C)c8)c8cccc9c8oc8ccccc89)cc7n%11-c7ccccc7)c5)c4)c3)cc2n6-c2ccccc2)c2cccc3c2oc2ccccc23)c1` [Compound 15], “○ (Evaluation list (○): 0.1 wt. % or more soluble)”. `c1ccc(-n2c3ccccc3c3cc(-c4ccc(N(c5ccc6ccccc6c5)c5ccc6c7c8ccc9c(c8ccc7n(-c7ccccc7)c6c5)c5ccc(N(c6ccc7c8c%10ccc%11c(c%10ccc8n(-c8ccccc8)c7c6)c6ccc(N(c7ccc(-c8ccc%10c(c8)c8ccccc8n%10-c8ccccc8)cc7)c7ccc8ccccc8c7)cc6n%11-c6ccccc6)c6ccc7c8c%10ccc%11c(c%10ccc8n(-c8ccccc8)c7c6)c6ccc(N(c7ccc(-c8ccc%10c(c8)c8ccccc8n%10-c8ccccc8)cc7)c7ccc8ccccc8c7)cc6n%11-c6ccccc6)cc5n9-c5ccccc5)cc4)ccc32)cc1` [Compound 3]: the “Solubility, Solvent CHON” value is reported as “○ (Evaluation list (○): 0.1 wt. % or more soluble)”.

As to `Cc1cccc(N(c2cccc3c2oc2ccccc23)c2cccc3c2c2c4ccc5c(c4ccc2n3-c2ccccc2)c2c(N(c3cccc4c3c3c6ccc7c(c6ccc3n4-c3ccccc3)c3c(N(c4cccc(C)c4)c4cccc6c4oc4ccccc46)cccc3n7-c3ccccc3)c3cccc4c3c3c6ccc7c(c6ccc3n4-c3ccccc3)c3c(N(c4cccc(C)c4)c4cccc6c4oc4ccccc46)cccc3n7-c3ccccc3)cccc2n5-c2ccccc2)c1` [Compound 19], the “Solubility, Solvent CHON” value is “○ (Evaluation list (○): 0.1 wt. % or more soluble)”.

Values taken from US12532661B2, “Compound and organic light emitting device comprising the same” (LG Chem, Ltd., priority 2020, dated 2026).
